In patent publication US8124587B2, “2-(aminomethyl)-5-chlorobenzylamide derivatives and their use as inhibitors of the clotting factor Xa” (The Medicines Company (Leipzig) GmbH, priority 2005, dated 2012):
Like-named read-outs stand apart in the source and are kept apart here.

Key:
Format in all cases: biochemical
Human factor Xa = target: T1, Human factor Xa (Homo sapiens, UniProt P00742); assay: Enzyme kinetic determination of Ki with chromogenic substrate, factor Xa; conditions: Tris buffer pH 8.0, 25° C., Pefachrome Xa, read-out: Ki (nM) FXa
T1 construct: Human factor Xa (Enzyme Research Lab., purchased from Haemochrom Diagnostica GmbH, Essen); purchased Enzyme Research Lab; (via Haemochrom Diagnostica GmbH, Essen)
Method: (§1) The inhibitory effect of the inhibitors for factor Xa, thrombin and plasmin were estimated using specific synthetic chromogenic substrates. […] The inhibitor was dissolved in Tris buffer, the substrates (all Pentapharm Ltd., Basel, CH) in water. […] Three different substrate concentrations and five different inhibitor concentrations were measured in each case.
(§2) The following enzymes and substrates were used for the measurements:
Human factor Xa (Enzyme Research Lab., purchased from Haemochrom Diagnostica GmbH, Essen)
Enzyme content: 0.67 μg/ml
Substrate: CH3OCO-D-Cha-Gly-Arg-pNA (Pefachrome Xa),
concentration: 4, 2 and 1 mM; reaction time: 4 min

Thrombin (bovine) = target: T2, Thrombin (bovine) (Bos taurus, UniProt P00735); assay: Enzyme kinetic determination of Ki with chromogenic substrate, thrombin
T2 construct: Thrombin (bovine)
Method: as §1, §2
Enzyme content: 2.5 IE/ml (in 0.9% NaCl with 1% HSA)
Substrate: CH3SO2-D-HHT-Gly-Arg-pNA (Pefachrome tPA),
concentration: 2, 1 and 0.5 mM; reaction time: 3 min

Human plasmin = target: T3, Human plasmin (Homo sapiens, UniProt P00747); assay: Enzyme kinetic determination of Ki with chromogenic substrate, plasmin; conditions: Tris buffer pH 8.0, 25° C., Chromozym PL
T3 construct: Human plasmin (CHROMOGENIX, Milano, Italy); purchased CHROMOGENIX, Milano, Italy
Method: as §1, §2
Human plasmin (CHROMOGENIX, Milano, Italy)
Substrate: Tos-Gly-Pro-Lys-pNA (Chromozym PL),
concentration: 2, 1 and 0.67 mM; reaction time: 3 min

[1] = bovine thrombin, Tris buffer pH 8.0, 25° C., Pefachrome tPA, read-out: Ki (nM) Thrombin

T3 sequence (P00747 581-810 limits assumed): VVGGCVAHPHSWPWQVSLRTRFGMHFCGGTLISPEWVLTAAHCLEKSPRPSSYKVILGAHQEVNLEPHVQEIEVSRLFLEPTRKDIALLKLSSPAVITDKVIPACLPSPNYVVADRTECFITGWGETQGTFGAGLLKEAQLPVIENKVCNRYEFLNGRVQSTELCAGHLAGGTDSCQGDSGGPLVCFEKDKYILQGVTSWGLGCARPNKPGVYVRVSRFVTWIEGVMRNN
T3 sequence (P00747 97-580 limits assumed): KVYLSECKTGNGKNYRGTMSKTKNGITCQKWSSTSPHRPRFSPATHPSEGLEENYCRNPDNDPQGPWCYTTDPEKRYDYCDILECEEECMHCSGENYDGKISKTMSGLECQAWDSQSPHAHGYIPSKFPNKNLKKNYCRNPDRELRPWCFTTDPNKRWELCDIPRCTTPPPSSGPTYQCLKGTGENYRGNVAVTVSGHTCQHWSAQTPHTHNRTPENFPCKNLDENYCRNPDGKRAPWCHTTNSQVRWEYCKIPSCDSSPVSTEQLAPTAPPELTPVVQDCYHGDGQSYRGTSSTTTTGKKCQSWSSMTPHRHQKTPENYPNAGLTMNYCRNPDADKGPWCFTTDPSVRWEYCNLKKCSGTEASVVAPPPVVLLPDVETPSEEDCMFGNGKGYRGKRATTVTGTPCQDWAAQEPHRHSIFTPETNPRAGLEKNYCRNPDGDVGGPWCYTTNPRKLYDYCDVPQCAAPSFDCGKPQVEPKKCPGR
T1 sequence (P00742 235-488 limits assumed): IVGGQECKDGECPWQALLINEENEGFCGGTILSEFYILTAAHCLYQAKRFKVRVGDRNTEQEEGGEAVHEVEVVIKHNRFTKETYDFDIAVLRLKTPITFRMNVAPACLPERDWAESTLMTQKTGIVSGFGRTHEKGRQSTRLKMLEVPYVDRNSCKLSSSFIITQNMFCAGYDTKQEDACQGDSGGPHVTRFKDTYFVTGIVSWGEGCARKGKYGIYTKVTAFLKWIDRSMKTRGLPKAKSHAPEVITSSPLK
T1 sequence (P00742 41-179 limits assumed): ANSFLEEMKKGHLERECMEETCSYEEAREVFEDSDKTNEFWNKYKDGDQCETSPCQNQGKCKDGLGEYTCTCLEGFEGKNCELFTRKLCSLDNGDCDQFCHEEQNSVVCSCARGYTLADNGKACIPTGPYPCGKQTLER

Row | SMILES | Ki (Human factor Xa) [nM] | Ki (Thrombin (bovine); [1]) [nM] | Ki (Human plasmin) [nM] | Ki (Thrombin (bovine)) [nM]
1 | NCc1ccc(Cl)cc1CNC(=O)CNC(=O)C(CCc1ccccn1)NS(=O)(=O)Cc1cccnc1 (stereo not drawn) [Inhibitor 26] | 0.34 | 140 | 210000 | 
2 | NCc1ccc(Cl)cc1CNC(=O)[C@@H]1CCCN1C(=O)[C@@H](CCc1cccc[n+]1[O-])NS(=O)(=O)CC(=O)O [Inhibitor 27] |  |  | 98000 | 22
3 | NCc1ccc(Cl)cc1CNC(=O)CNC(=O)C(CCc1ccccn1)NS(=O)(=O)Cc1ccc(C(=O)O)cc1 (stereo not drawn) [Inhibitor 23] | 11 | 330 | 140000 | 
4 | NCc1ccc(Cl)cc1CNC(=O)CNC(=O)[C@H](O)CCc1ccccc1 [Inhibitor 8] | 2200 | 1600 | 540000 | 
5 | NCc1ccc(Cl)cc1CNC(=O)[C@H](CO)NC(=O)[C@@H](CCc1cccc[n+]1[O-])NS(=O)(=O)Cc1ccc(CC(=O)O)cc1 [Inhibitor 17] | 0.18 | 540 | > 1e+06 | 
6 | CCCS(=O)(=O)NC(CCc1cccc[n+]1[O-])C(=O)NCC(=O)NCc1cc(Cl)ccc1CN (stereo not drawn) [Inhibitor 4] |  |  | 280000 | 2630
7 | NCc1ccc(Cl)cc1CNC(=O)[C@@H]1CCCN1C(=O)[C@@H](CCc1cccc[n+]1[O-])NCC(=O)OC1CCCCC1 [Inhibitor 38] | 1.01 |  |  | 
8 | COC(=O)CC[C@H](NC(=O)C(CCc1cccc[n+]1[O-])NS(=O)(=O)Cc1ccccc1)C(=O)NCc1cc(Cl)ccc1CN (stereo partly drawn) [Inhibitor 5] | 0.43 | 350 | 130000 | 
9 | NCc1ccc(Cl)cc1CNC(=O)CNC(=O)C(CCc1ccccn1)NS(=O)(=O)Cc1ccc(CC(=O)O)cc1 (stereo not drawn) [Inhibitor 15] | 0.68 | 140 | > 1e+06 | 
10 | NCc1ccc(Cl)cc1CNC(=O)CNC(=O)C(CCc1cccc[n+]1[O-])NC(=O)CC(=O)O (stereo not drawn) [Inhibitor 32] |  |  |  | 140
11 | NCc1ccc(Cl)cc1CNC(=O)[C@@H]1CCCN1C(=O)[C@@H](CCc1cccc[n+]1[O-])NS(=O)(=O)Cc1ccccc1 [Inhibitor 7] |  |  | 8470 | 0.56
12 | NCc1ccc(Cl)cc1CNC(=O)CNC(=O)C(CCc1cccc[n+]1[O-])NS(=O)(=O)Cc1ccc(CC(=O)O)cc1 (stereo not drawn) [Inhibitor 14] |  |  | > 1e+06 | 930
13 | NCc1ccc(Cl)cc1CNC(=O)[C@H](CO)NC(=O)[C@@H](CCc1ccccn1)NS(=O)(=O)Cc1ccc(CC(=O)O)cc1 [Inhibitor 19] | 0.78 | 210 | 100000 | 
14 | NCc1ccc(Cl)cc1CNC(=O)CNC(=O)[C@@H](CCc1cccc[n+]1[O-])NS(=O)(=O)Cc1ccccc1 [Inhibitor 1] |  |  | 600000 | 170
15 | COC(=O)Cc1ccc(CS(=O)(=O)NC(CCc2ccccn2)C(=O)N[C@@H](CO)C(=O)NCc2cc(Cl)ccc2CN)cc1 (stereo partly drawn) [Inhibitor 18] | 0.67 | 430 | > 1e+06 | 
16 | NCc1ccc(Cl)cc1CNC(=O)CNC(=O)C(CCc1cccc[n+]1[O-])NS(=O)(=O)Cc1ccc(C(=O)O)cc1 (stereo not drawn) [Inhibitor 21] | 4.1 | 1300 | 130000 | 
17 | NCc1ccc(Cl)cc1CNC(=O)CNC(=O)C(CCc1cccc[n+]1[O-])NS(=O)(=O)Cc1ccc[n+]([O-])c1 (stereo not drawn) [Inhibitor 25] | 1.4 | 2500 | > 1e+06 | 

Row | SMILES | Ki (Human factor Xa) [nM] | Ki (Thrombin (bovine); [1]) [nM] | Ki (Human plasmin) [nM] | Ki (Thrombin (bovine)) [nM]
18 | NCc1ccc(Cl)cc1CNC(=O)CNC(=O)C(CCc1cccc[n+]1[O-])NCC(=O)O (stereo not drawn) [Inhibitor 9] |  |  | > 1e+06 | 125000
19 | CC(C)OC(=O)CS(=O)(=O)NC(CCc1ccccn1)C(=O)NCC(=O)NCc1cc(Cl)ccc1CN (stereo not drawn) [Inhibitor 30] | 2.1 | 66 | 290000 | 
20 | CCOC(=O)CN[C@H](CCc1ccccn1)C(=O)N1CCC[C@H]1C(=O)NCc1cc(Cl)ccc1CN [Inhibitor 34] |  |  |  | 3.8
21 | NCc1ccc(Cl)cc1CNC(=O)[C@H](CN)NC(=O)[C@@H](CCc1cccc[n+]1[O-])NS(=O)(=O)Cc1ccccc1 [Inhibitor 12] | 0.54 | 750 | 2300 | 
22 | NCc1ccc(Cl)cc1CNC(=O)CNC(=O)C(CCc1cccc[n+]1[O-])NS(=O)(=O)CC(=O)O (stereo not drawn) [Inhibitor 29] |  |  | > 1e+06 | 8300
23 | NCc1ccc(Cl)cc1CNC(=O)[C@H](CCC(=O)O)NC(=O)C(CCc1cccc[n+]1[O-])NS(=O)(=O)Cc1ccccc1 (stereo partly drawn) [Inhibitor 6] |  |  | 400000 | 20500
24 | NCc1ccc(Cl)cc1CNC(=O)[C@@H]1CCCN1C(=O)[C@@H](CCc1cccc[n+]1[O-])NCC(=O)O [Inhibitor 35] | 0.4 |  | 100000 | 17.2
25 | CC(C)OC(=O)CS(=O)(=O)NC(CCc1cccc[n+]1[O-])C(=O)NCC(=O)NCc1cc(Cl)ccc1CN (stereo not drawn) [Inhibitor 28] | 7.6 |  | 305000 | 1600
26 | NCc1ccc(Cl)cc1CNC(=O)[C@@H]1CCCN1C(=O)C(CCc1cccc[n+]1[O-])NC(=O)C(=O)O (stereo partly drawn) [Inhibitor 31] | 0.88 | 43 | 80000 | 
27 | COC(=O)Cc1ccc(CS(=O)(=O)NC(CCc2cccc[n+]2[O-])C(=O)NCC(=O)NCc2cc(Cl)ccc2CN)cc1 (stereo not drawn) [Inhibitor 13] |  |  | 200000 | 1010
28 | C[C@H](NC(=O)[C@@H](CCc1cccc[n+]1[O-])NS(=O)(=O)Cc1ccccc1)C(=O)NCc1cc(Cl)ccc1CN [Inhibitor 10] |  |  | 85000 | 170
29 | CCOC(=O)CN[C@H](CCc1cccc[n+]1[O-])C(=O)N1CCC[C@H]1C(=O)NCc1cc(Cl)ccc1CN [Inhibitor 33] | 0.4 |  | 240000 | 
30 | COC(=O)c1ccc(CS(=O)(=O)NC(CCc2ccccn2)C(=O)NCC(=O)NCc2cc(Cl)ccc2CN)cc1 (stereo not drawn) [Inhibitor 22] | 1.05 | 100 | 98000 | 
31 | COC(=O)c1ccc(CS(=O)(=O)NC(CCc2cccc[n+]2[O-])C(=O)N[C@@H](CO)C(=O)NCc2cc(Cl)ccc2CN)cc1 (stereo partly drawn) [Inhibitor 24] | 0.48 | 930 | 160000 | 
32 | NCc1ccc(Cl)cc1CNC(=O)[C@H](CO)NC(=O)C(CCc1ccccn1)NS(=O)(=O)Cc1ccccc1 (stereo partly drawn) [Inhibitor 3] |  |  | 350000 | 260
33 | COC(=O)c1ccc(CS(=O)(=O)NC(CCc2cccc[n+]2[O-])C(=O)NCC(=O)NCc2cc(Cl)ccc2CN)cc1 (stereo not drawn) [Inhibitor 20] | 0.3 | 360 | 140000 | 
34 | COC(=O)CC[C@H](NC(=O)[C@@H](CCc1cccc[n+]1[O-])NS(=O)(=O)Cc1ccccc1)C(=O)NCc1cc(Cl)ccc1CN [Inhibitor 11] | 0.24 | 180 | 78000 | 
